This note sets out measurements from patent US6673902B2, “Cyclin D binding factor, and uses thereof” (St. Jude Children's Research Hospital, priority 1996, dated 2004).

Assay [1] deals with BS2-driven reporter plasmid. Nature of the assay: Transactivation of BS2-driven luciferase reporter in 293T cells. The assay is classed as cell-based, human. The conditions noted are these: 1 μg BS2-driven reporter. From the text: (§1) An XbaI-EcoRV fragment containing the entire DMP1 coding sequence is subcloned by blunt end ligation into a SpeI-XbaI fragment of the Rc/RSV vector (Invitrogen, La Jolla Calif.) to enable DMP1 expression in mammalian cells. 6×concatamerized BS1, 8×concatamerized, BS2, or 7×concatamerized M3 oligonucleotides (FIG. 5B) are inserted into the XhoI-SmaI sites of pGL2 (Pfornega) 5′ to a minimal simian virus 40 (SV40) early promoter driving firefly luciferase gene expression. The latter “reporter” plasmid (1 μg) together with increasing amounts of pRc/RSV-DMP1 expression plasmid compensated by decreasing quantities of control pRc/RSV DNA (total of both=2.5 μg) were transfected into 293T cells (1.5×10^6 cells per 60 mm diameter culture dish) by calcium phosphate precipitation (7). Two days later, cells were harvested, washed three times with PBS, and lysed in 1 ml of 25 mM glycylglycine (Sigma), pH 7.8, 15 mM MgSO4, 4 mM EDTA, 1 mM DTT, and 1% Triton X-100. After clearing by centrifugation, 50 μl aliquots were assayed diluted to 350 μl using 15 mM potassium phosphate buffer, pH 7.8, containing 15 mM MgSO4, 4 mM EGTA, 2 mM ATP, 1 mM DTT, and 67 uM luciferin (Sigma). Total light emission was measured for duplicate samples during the initial 20 seconds after luciferin injection with an Optocomp I luminometer (MGM Instruments, Hamden Conn.). […]

For assay [2], the system named is promoters lacking BS2 sites or containing Ets-specific M3 sites. Nature of the assay: Transactivation of reporters lacking BS2 sites or containing M3 sites in 293T cells. It counts as cell-based, human.
Excerpt: as §1

The subject of another assay is p19ARF. Description: Induction of endogenous p19ARF protein in retrovirus-infected MEFs. The assay is classed as cell-based, mouse. How it is done:
Virus production and infection. Human kidney 293T cells were transfected with a helper ecotropic retrovirus plasmid defective in psi-2 packaging sequences, together with pSRα vectors containing murine DMP1, human c-Myc, human E2F-1, or human Ets1 cDNAs [Zindy, et al., Genes Dev. 12:2424-2433 (1998); Inoue and Sherr, J. Biol. Chem. 273:29188-29194 (1998)]. Viruses were harvested every 6 hours 24-72 hours after transfection, filtered and stored at 4° C. until used for infection [Zindy, et al., Genes Dev. 12:2424-2433 (1998)]. In order to construct a retroviral vector containing DMP1 linked to a mutated tamoxifen-responsive element of the estrogen receptor (DMP1-ER™), a 3′ 0.3 kb EcoNI DNA fragment of murine DMP1 cDNA was amplified by PCR using
RNA and protein expression. Quantitative RT-PCRs employed specific primers for murine ARF exon 1β (30 cycles) and for β-actin (20 cycles) used as a control [Zindy et al., Oncogene 15:203-211 (1997)]. […]
Based on the above observations, it was determined as to whether introduction of DMP1 would induce synthesis of the endogenous ARF protein in normal diploid fibroblast strains. […] Although the blot was normalized for protein input, the levels of p19^ARF induced by DMP1 were calculated to be 2-fold higher than those induced by Myc, because fewer cells were productively infected with the DMP1 virus in this experiment (see FIG. 15A).

With “DMP1: murine cyclin D-associated myb-like transcription factor, 761 amino acids, SEQ ID NO:1”, in assay [1], the “transactivation of luciferase activity relative to reporter plasmid alone” value was ~20 fold. In addition, the transactivation entry in assay [2] is “not observed”. Moreover, the “levels of p19ARF induced relative to those induced by Myc” value with p19ARF (corrected for fraction of productively infected cells) stood at 2 fold. In addition, the ARF protein synthesis entry with p19ARF (early passage MEFs, retroviral infection) is recorded as “induced ARF protein synthesis”.
